Values of other authors, collected in patent US9090495B2, “Slow release tablet composition for treating industrial water systems” (AMSA, Inc., priority 2009, dated 2015).

How the values were obtained:
[1] = alkaline pH, such as pH~9, industrial water system conditions
[2] = typical cooling tower system; composition of U.S. Pat. No. 4,816,061

Q: For `N#CC(Br)(Br)C(N)=O` [DBNPA, 2,2-dibromo-3-nitrilopropionamide], which Time to degradation [1] is on record?
A: The Time to degradation was “a few minutes”.

Q: For `CCCCCCCCCCSCCN` [n-decylthioethylamine], which “Duration of effectiveness of a typical dose” value [2] is on record?
A: Its value is 1 to 1.5 days.
